Measurements: US20020155422A1, “Methods for analyzing dynamic changes in cellular informatics and uses therefor” (priority 2000, published 2002)

System: HL-60 cells
Test: Gene expression profiling (Resgen microarray filters) of HL-60 cells stimulated to differentiate into neutrophils, time course
Assay type: cell-based, human
Conditions: for Normalized expression level of gene W95428 / Normalized expression level of gene W96205 / Normalized expression level of gene W96450 / Normalized expression level of gene W96463: HL-60 cells, retinoic acid induced switch, normalized to T = 0 level
Source text: Given the value of understanding the genetic basis of the switch between different hematopoietic stem cell lineages, a well-characterized human pluripotent precursor cell line—the HL 60 promyeloid leukemia cell line—provides a useful model system. HL 60 precursors cells can be induced to switch to granulocytes, monocytes, or macrophages based on alterations in experimental conditions. […] Established molecular methods (e.g., immunocytochemistry, FACS cell sorting, SDS-PAGE, Western blots, Northern blots, or other biochemical or molecular biological techniques) can be used to identify cells that have switched, between different phenotypes. These methods can be used to identify experimental conditions necessary to optimally acquire the baseline data for analysis according to methods of the invention, including information on the dose-response for the transition between different cell states and the time required for a stimulated cell to undergo the transition and reach a new steady state. Additional insight into the molecules involved in cell regulation may be gained by carrying out analysis of cells under various experimental conditions that induce forward and reverse transitions between the same two states by adding or removing a common stimulus as well as by analysis of convergent transition processes that involve switching to a common cell state using different stimuli and divergent transition process that involve switching from one state to two different attractor states using different perturbations. […] The latter would lead to a perturbation of the attractor state to various degrees with subsequent relaxation back to the same attractor along distinct trajectories.
Cell state transitions that may be studied and characterized in the HL60 model system include: A) induction of a transition from HL60 precursor to a granulocyteby treatment with DMSO; B) induction of a reverse transition from granulocyte to HL60 by removing DMSO; C) induction of a transition from HL60 precursor to granulocyte using all-trans-retinoid acid; D) induction of a reverse transition from granulocytes to HL60 precursors by removing all-trans-retinoid acid; E) induction of a transition from HL60 precursors to a monocyte(s) by addition of NaButyrate; and F) induction of a transition from HL60 precursors to a macrophage(s) by addition of TPA. This approach was used to analyze two convergent processes of HL-60 cell transition from precursor to neutrophil states after stimulation with DMSO and retinoic acid (transitions A and C, respectively). In this experiment, only a relatively low number of genes (<300) were analyzed over 7 time points.
HL-60 cells (1.5×10^6 cells/ml) were stimulated in parallel cultures to differentiate into neutrophils along two different but convergent paths by treatment with DMSO (S1 path) or retinoic acid (S2 path). At each time point, RNA was harvested from both cultures using RNeasy extraction kit (Qiagen) and subjected to gene expression profiling using Resgen microarray filters from Research Genetics/Invitrogen (the gene filter contains 5000 human cDNAs that were pre-spotted on a 5×7 cm nylon membrane and then hybridized with radioactively labeled cDNA made from total cellular RNA). […] Expression levels for each gene were normalized to the 0 time point level for that gene (untreated reference). Genes with expression levels below a 4 fold change relative to the 0 reference were excluded from the analysis. In this analysis, an inter-trajectory distance representation was used to compare different trajectories with the cell state space and to identify common paths in cell state transition processes. For each time point, a state vector of length 281 genes was defined for each of the two processes S1(t) and S2(t). […]

SMILES: CC1=C(/C=C/C(C)=C/C=C/C(C)=C/C(=O)O)C(C)(C)CCC1 [retinoic acid]
- Normalized expression level of gene W95428 (2 hours): 1.049
- Normalized expression level of gene W96205 (2 hours): 0.9014
- Normalized expression level of gene W96450 (2 hours): 0.8141
- Normalized expression level of gene W96463 (2 hours): 0.9136
- Normalized expression level of gene W95428 (Day 2): 1.003
- Normalized expression level of gene W96205 (Day 2): 0.931
- Normalized expression level of gene W96450 (Day 2): 0.8573
- Normalized expression level of gene W96463 (Day 2): 0.9058
- Normalized expression level of gene W95428 (Day 3): 0.9532
- Normalized expression level of gene W96205 (Day 3): 0.9937
- Normalized expression level of gene W96450 (Day 3): 0.6712
- Normalized expression level of gene W96463 (Day 3): 0.8109
- Normalized expression level of gene W95428 (Day 4): 0.9982
- Normalized expression level of gene W96205 (Day 4): 0.9089
- Normalized expression level of gene W96450 (Day 4): 0.8387
- Normalized expression level of gene W96463 (Day 4): 0.8458
- Normalized expression level of gene W95428 (Day 5): 0.9605
- Normalized expression level of gene W96205 (Day 5): 0.9604
- Normalized expression level of gene W96450 (Day 5): 1.17
- Normalized expression level of gene W96463 (Day 5): 0.841
- Normalized expression level of gene W95428 (Day 7): 0.954
- Normalized expression level of gene W96205 (Day 7): 0.9732
- Normalized expression level of gene W96450 (Day 7): 1.087
- Normalized expression level of gene W96463 (Day 7): 0.8014

SMILES: C[S+](C)[O-] [DMSO]
- inter-trajectory distance DT(t) (squared Euclidean distance between state vectors S1(t), S2(t)) (HL-60 cells 1.5×10^6 cells/ml, DMSO (S1 path) versus retinoic acid (S2 path), 281 genes, 7 time points, FIG. 7): converge on the same differentiation state
